# Test results reported in patent EP4603105A1, “PHARMACEUTICAL COMPOSITION CONTAINING CYCLIC COMPOUND HAVING SELECTIVE KRAS INHIBITORY EFFECT AGAINST HRAS AND NRAS” (CHUGAI SEIYAKU KABUSHIKI KAISHA, priority 2022, dated 2024).
# *1 amine or outer side, *2 acyl side, *3 side chain or, on linkers, in order; H or OH if unused. Where a SMILES comes first, the peptide text is derived from it. Bridges are numbered along the chain shown (N, C = ends). [ ]: non-standard residue; d: D form. The star is where a group is joined. hPhe(3-Cl-4-CF3) = N[C@@H](CCc1ccc(C(F)(F)F)c(Cl)c1)C(=O)O; X45 = CCCN([C@@H](CC1CCC(F)(F)CC1)C(=O)[*:2])[*:1]; NEtPhe(4-Me) = CCN[C@@H](Cc1ccc(C)cc1)C(=O)O; NMeGly(cPent) = CN[C@H](C(=O)O)C1CCCC1; NMeD = CN[C@@H](CC(=O)O)C(=O)O; NMeL = CN[C@@H](CC(C)C)C(=O)O; NMeV = CN[C@H](C(=O)O)C(C)C; Morpholide = C1CN(*)CCO1; NMeA = CN[C@@H](C)C(=O)O; Ac5c = NC1(C(=O)O)CCCC1; Aze = O=C(O)[C@@H]1CCN1; Sar = CNCC(=O)O
# Columns and labels:
# [1] = test system: human lung cancer strain NCI-H441; type: cell-based
# Summary of the method: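 Proliferation was scored by […] measured after the reagent was added to cultures kept at 37°C in 5% carbon dioxide.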
# [2] = target: GDP-bound NRAS wild-type protein (Homo sapiens, UniProt P01111); assay: Binding to NRAS by surface plasmon resonance (SPR), KD and KD ratio to KRAS
# GDP-bound NRAS wild-type protein, sequence (P01111 whole entry): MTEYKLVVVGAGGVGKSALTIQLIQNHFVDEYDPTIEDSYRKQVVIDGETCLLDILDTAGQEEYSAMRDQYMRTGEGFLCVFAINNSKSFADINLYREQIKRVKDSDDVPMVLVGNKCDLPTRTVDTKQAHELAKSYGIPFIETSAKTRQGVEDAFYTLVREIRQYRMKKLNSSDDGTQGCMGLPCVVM
# Summary of the method: (§1)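 SPR, 30°C: Avi-biotin RAS·GDP captured via Biotin CAPture (~100–300 RU); running buffer HBS pH 7.4, 1 mM DTT, 10 mM MgCl2, 0.01% Tween 20, 10 µM GDP, 4% DMSO. Single-cycle kinetics, 100 µL/min, 75 s injections; 1:1 model → KD.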
# HRAS wild-type protein = HRAS wild-type protein (Homo sapiens, UniProt P01112); assay: Binding to HRAS by surface plasmon resonance (SPR), KD and KD ratio to KRAS
# HRAS wild-type protein, sequence (P01112 whole entry): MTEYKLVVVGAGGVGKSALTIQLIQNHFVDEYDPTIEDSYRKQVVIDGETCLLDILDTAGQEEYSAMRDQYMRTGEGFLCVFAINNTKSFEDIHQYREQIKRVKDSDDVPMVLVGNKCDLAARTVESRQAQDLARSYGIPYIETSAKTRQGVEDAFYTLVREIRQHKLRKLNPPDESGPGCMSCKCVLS
# Summary of the method: as §1
# [3] = ratio of the KD value with respect to GDP-bound NRAS wild-type protein to the KD value with respect to KRAS
# [4] = ratio of the KD value with respect to HRAS wild-type protein to the KD value with respect to KRAS
# [5] = ratio of KD for GDP-bound NRAS wild-type protein to KD for KRAS
# [6] = ratio of KD for HRAS wild-type protein to KD for KRAS
# [7] = ratio of KD value for GDP-bound NRAS wild-type protein to KD value for KRAS (SPR)
# [8] = ratio of KD value for HRAS wild-type protein to KD value for KRAS (SPR)
Structure (SMILES),IC50 [1],"NRAS /KRAS [2, 3]",HRAS /KRAS (HRAS wild-type protein; [4]),"NRAS /KRAS [2, 5]",HRAS /KRAS (HRAS wild-type protein; [6]),"NRAS /KRAS [2, 7]",HRAS /KRAS (HRAS wild-type protein; [8])
CCO[C@@H]1C[C@H]2C(=O)NC3(CCC3)C(=O)N(C)[C@@H](C3CCCC3)C(=O)N(C)[C@H](C(=O)N(C)C)CC(=O)N(C)[C@@H](Cc3cccs3)C(=O)N[C@@H]([C@@H](C)CC)C(=O)N(C)CC(=O)N(C)[C@H]3C/C=C\CCN(C3=O)[C@@H](Cc3ccc(C(F)(F)F)cc3)C(=O)N(C)CC(=O)N[C@@H](CCc3cc(F)c(C(F)(F)F)c(F)c3)C(=O)N2C1 [PP1123],13.4 nM,,,A (a compound having 10 or more and less than 20 is denoted as A),B (a compound having 3 or more and less than 10 is denoted as B),,
CCO[C@@H]1C[C@H]2C(=O)NC3(CCCC3)C(=O)N(C)[C@@H](C3CCCC3)C(=O)N(C)[C@H](C(=O)N3CCOCC3)CC(=O)N(C)[C@@H](CC(C)C)C(=O)N[C@@H]([C@@H](C)CC)C(=O)N(C)CC(=O)N(C)[C@H]3CCCCCN(C3=O)[C@@H](Cc3ccc(C(F)(F)F)cc3)C(=O)N(C)CC(=O)N[C@@H](CCc3cc(F)c(C(F)(F)F)c(F)c3)C(=O)N2C1 [PP0492],31.9 nM,B (a compound having 3 or more and less than 10 is denoted as B),B (a compound having 3 or more and less than 10 is denoted as B),,,,
CC[C@H](C)[C@@H]1NC(=O)[C@H](CC(C)C)N(C)C(=O)C[C@@H](C(=O)N2CCOCC2)N(C)C(=O)[C@H](C(C)C)N(C)C(=O)C2(CCCC2)NC(=O)[C@@H]2CCCN2C(=O)[C@H](CCc2ccc(C(F)(F)F)c(Cl)c2)NC(=O)CN(C)C(=O)[C@H](Cc2ccc(C)cc2)N(CC)C(=O)[C@@H]2CCN2C(=O)[C@H](C)N(C)C1=O [PP0015] ([NMeL]I[NMeA][Aze][NEtPhe(4-Me)][Sar][hPhe(3-Cl-4-CF3)]P[Ac5c][NMeV][NMeD]-Morpholide; lactam N-11),24.5 nM,,,C (A compound having a KD ratio of 0.1 or more and less than 3 is denoted as C),C (A compound having a KD ratio of 0.1 or more and less than 3 is denoted as C),,
C=CCC[C@H]1C(=O)N[C@@H]([C@@H](C)CC)C(=O)N(C)CC(=O)N(C)[C@H]2CCCCN(C2=O)[C@@H](Cc2ccc(C(F)(F)F)cc2)C(=O)N(C)CC(=O)N[C@@H](CCc2cc(F)c(C(F)(F)F)c(F)c2)C(=O)N2C[C@H](OCC)C[C@H]2C(=O)N[C@](C)(CC=C)C(=O)N(C)[C@@H](C2CCCC2)C(=O)N(C)[C@H](C(=O)N2CCOCC2)CC(=O)N1C [PP0875],4.8 nM,,,C (A compound having a KD ratio of 0.1 or more and less than 3 is denoted as C),B (a compound having 3 or more and less than 10 is denoted as B),,
CCO[C@@H]1C[C@H]2C(=O)NC3(CC(C)(C)C3)C(=O)N(C)[C@@H](C(CC)CC)C(=O)N(C)[C@H](C3CCC3)CC(=O)N(C)[C@@H](CC3CC3)C(=O)N[C@@H]([C@@H](C)CC)C(=O)N(C)CC(=O)N(C)[C@H]3C/C=C\CCN(C3=O)[C@@H](Cc3ccc(C(F)(F)F)cc3)C(=O)N(C)CC(=O)N[C@@H](CCc3cc(F)c(C(F)(F)F)c(F)c3)C(=O)N2C1 [PP1634],144 nM,,,,,A (a compound having 10 or more and less than 20 is denoted as A),A (a compound having 10 or more and less than 20 is denoted as A)
CCCN1C(=O)[C@@H]2CCN2C(=O)[C@H](C)N(C)C(=O)[C@H]([C@@H](C)CC)NC(=O)[C@H](CC(C)C)N(C)C(=O)C[C@@H](C(=O)N2CCOCC2)N(C)C(=O)[C@H](C2CCCC2)N(C)C(=O)C2(CCCC2)NC(=O)[C@@H]2CCCN2C(=O)[C@H](CCc2ccc(C(F)(F)F)c(Cl)c2)NC(=O)CN(C)C(=O)[C@@H]1CC1CCC(F)(F)CC1 [PP0527] ([NMeL]I[NMeA][Aze][X45][Sar][hPhe(3-Cl-4-CF3)]P[Ac5c][NMeGly(cPent)][NMeD]-Morpholide; lactam N-11),5.7 nM,C (A compound having a KD ratio of 0.1 or more and less than 3 is denoted as C),C (A compound having a KD ratio of 0.1 or more and less than 3 is denoted as C),,,,
CCO[C@@H]1C[C@H]2C(=O)NC3(CCC3)C(=O)N(C)[C@@H](C3CCCC3)C(=O)N(C)[C@H](C(=O)N3CCOCC3)CC(=O)N(C)[C@@H](CC)C(=O)N[C@@H]([C@@H](C)CC)C(=O)N(C)CC(=O)N(C)[C@H]3C[C@@H](C)CCN(C3=O)[C@@H](Cc3ccc(C(F)(F)F)cc3)C(=O)N(C)CC(=O)N[C@@H](CCc3cc(F)c(C(F)(F)F)c(F)c3)C(=O)N2C1 [PP1027],7.2 nM,,,C (A compound having a KD ratio of 0.1 or more and less than 3 is denoted as C),B (a compound having 3 or more and less than 10 is denoted as B),,
CCO[C@@H]1C[C@H]2C(=O)NC3(CCC(F)(F)CC3)C(=O)N(C)[C@@H](C3CCCC3)C(=O)N(C)[C@H](C(=O)N(C)C)CC(=O)N(C)[C@@H](C)C(=O)N[C@@H]([C@@H](C)CC)C(=O)N(C)CC(=O)N(C)[C@H]3CCCCCN(C3=O)[C@@H](Cc3ccc(C(F)(F)F)cc3)C(=O)N(C)CC(=O)N[C@@H](CCc3cc(F)c(C(F)(F)F)c(F)c3)C(=O)N2C1 [PP0725],194 nM,B (a compound having 3 or more and less than 10 is denoted as B),B (a compound having 3 or more and less than 10 is denoted as B),,,,

# Now from value to compound, other results behind:
IC50 [1],Structure (SMILES),"NRAS /KRAS [2, 3]",HRAS /KRAS (HRAS wild-type protein; [4]),"NRAS /KRAS [2, 5]",HRAS /KRAS (HRAS wild-type protein; [6]),"NRAS /KRAS [2, 7]",HRAS /KRAS (HRAS wild-type protein; [8])
5.9 nM,CCOC[C@H]1C(=O)N[C@@H]([C@@H](C)CC)C(=O)N(C)CC(=O)N(C)[C@H]2C/C=C\CCN(C2=O)[C@@H](Cc2ccc(C(F)(F)F)cc2)C(=O)N(C)CC(=O)N[C@@H](CCc2cc(F)c(C(F)(F)F)c(F)c2)C(=O)N2C[C@@H](C)C[C@H]2C(=O)NC2(CC(C)(C)C2)C(=O)N(C)[C@@H](C2CCCC2)C(=O)N(C)[C@H](C(=O)N(C)CC)CC(=O)N1C [PP2042],A (a compound having 10 or more and less than 20 is denoted as A),A (a compound having 10 or more and less than 20 is denoted as A),,,,
160 nM,CCC[C@H]1C(=O)N[C@@H]([C@@H](C)CC)C(=O)N(C)CC(=O)N(C)[C@H]2C/C=C\CCN(C2=O)[C@@H](Cc2ccc(C(F)(F)F)cc2)C(=O)N(C)CC(=O)N[C@@H](CCc2ccc(Cl)c(Cl)c2)C(=O)N2CC[C@H]2C(=O)NC2(CC(C)(C)C2)C(=O)N(C)[C@@H](C(CC)CC)C(=O)N(C)[C@H](C(=O)N(C)C)CC(=O)N1C [PP2921],,,AA (a compound having 20 or more is denoted as AA),A (a compound having 10 or more and less than 20 is denoted as A),,
6.9 nM,C#CC[C@H]1C(=O)N[C@@H]([C@@H](C)CC)C(=O)N(C)CC(=O)N(C)[C@H]2C/C=C\CCN(C2=O)[C@@H](Cc2ccc(C(F)(F)F)cc2)C(=O)N(C)CC(=O)N[C@@H](CCc2ccc(C(F)(F)F)c(OC)c2)C(=O)N2C[C@H](OCC)C[C@H]2C(=O)NC2(CC(C)(C)C2)C(=O)N(C)[C@@H](C2CCCC2)C(=O)N(C)[C@H](C(=O)N(C)CC)CC(=O)N1C [PP2051],A (a compound having 10 or more and less than 20 is denoted as A),A (a compound having 10 or more and less than 20 is denoted as A),,,,
28 nM,CCC[C@H]1C(=O)N[C@@H]([C@@H](C)CC)C(=O)N(C)CC(=O)N(C)[C@H]2C/C=C\CCN(C2=O)[C@@H](Cc2ccc(C(F)(F)F)cc2)C(=O)N(C)CC(=O)N[C@@H](CCc2cc(F)c(C(F)(F)F)c(F)c2)C(=O)N2C[C@H](OCC)C[C@H]2C(=O)NC2(CC(C)(C)C2)C(=O)N(C)[C@@H](CC2CC2)C(=O)N(C)[C@H](C(=O)N(C)C)CC(=O)N1C [PP2807],,,AA (a compound having 20 or more is denoted as AA),A (a compound having 10 or more and less than 20 is denoted as A),,
17.7 nM,CCO[C@@H]1C[C@H]2C(=O)NC3(CCC3)C(=O)N(C)[C@@H](C3CCCC3)C(=O)N(C)[C@H](C(=O)N(C)C)CC(=O)N(C)[C@@H](CC3CCCC3)C(=O)N[C@@H]([C@@H](C)CC)C(=O)N(C)CC(=O)N(C)[C@H]3C/C=C\CCN(C3=O)[C@@H](Cc3ccc(C)cc3)C(=O)N(C)CC(=O)N[C@@H](CCc3cc(Cl)c(C(F)(F)F)c(Cl)c3)C(=O)N2C1 [PP2679],,,A (a compound having 10 or more and less than 20 is denoted as A),A (a compound having 10 or more and less than 20 is denoted as A),,
29.5 nM,CCC[C@H]1C(=O)N[C@@H]([C@@H](C)CC)C(=O)N(C)CC(=O)N(C)[C@H]2C/C=C\CCN(C2=O)[C@@H](Cc2ccc(C(F)(F)F)cc2)C(=O)N(C)CC(=O)N[C@@H](CCc2ccc(C(F)(F)F)c(OC)c2)C(=O)N2CCCCC[C@H]2C(=O)NC2(CC(C)(C)C2)C(=O)N(C)[C@@H](C(CC)CC)C(=O)N(C)[C@H](C(=O)N(C)C)CC(=O)N1C [PP2968],,,AA (a compound having 20 or more is denoted as AA),A (a compound having 10 or more and less than 20 is denoted as A),,
4.6 nM,CCO[C@@H]1C[C@H]2C(=O)N(C)C3(CCCC3)C(=O)N(C)[C@@H](C3CCCC3)C(=O)N(C)[C@H](C(=O)N(C)C)CC(=O)N(C)[C@@H](CC)C(=O)N[C@@H]([C@@H](C)CC)C(=O)N3CCC[C@H]3C(=O)N(C)[C@H]3C/C=C\CCN(C3=O)[C@@H](Cc3ccc(C)cc3)C(=O)N(C)CC(=O)N[C@@H](CCc3cc(F)c(C(F)(F)F)c(F)c3)C(=O)N2C1 [PP1810],,,,,A (a compound having 10 or more and less than 20 is denoted as A),B (a compound having 3 or more and less than 10 is denoted as B)
